Results as given in PubChem BioAssay (NCI).
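These data come from cells grown in 96-well plates and exposed to compound for 48 hours at five concentrations. GI50 marks 50% less growth. TGI: concentration producing complete growth inhibition.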

Columns and labels:
Assay in all cases: growth of human tumour cells (NCI), 48 h
MCF7 breast = tested on: MCF7 breast
HCT-116 colon = tested on: HCT-116 colon
SN12C renal = tested on: SN12C renal
786-0 renal = tested on: 786-0 renal
HCT-15 colon = tested on: HCT-15 colon
T-47D breast = tested on: T-47D breast
NCI-H23 lung = tested on: NCI-H23 lung
NCI-H460 lung = tested on: NCI-H460 lung
IGROV1 ovarian = tested on: IGROV1 ovarian
HOP-92 NSCLC = tested on: HOP-92 NSCLC
U251 CNS = tested on: U251 CNS
DU-145 prostate = tested on: DU-145 prostate
CCRF-CEM leukemia = tested on: CCRF-CEM leukemia
SR leukemia = tested on: SR leukemia
UACC-62 melanoma = tested on: UACC-62 melanoma
SK-OV-3 ovarian = tested on: SK-OV-3 ovarian
SNB-75 CNS = tested on: SNB-75 CNS
OVCAR-3 ovarian = tested on: OVCAR-3 ovarian
A498 renal = tested on: A498 renal
TK-10 renal = tested on: TK-10 renal
HOP-62 NSCLC = tested on: HOP-62 NSCLC
PC-3 prostate = tested on: PC-3 prostate
HCC-2998 colon = tested on: HCC-2998 colon
SK-MEL-28 melanoma = tested on: SK-MEL-28 melanoma
SNB-19 CNS = tested on: SNB-19 CNS
LOX IMVI melanoma = tested on: LOX IMVI melanoma
HT29 colon = tested on: HT29 colon
NCI-H522 lung = tested on: NCI-H522 lung
MALME-3M melanoma = tested on: MALME-3M melanoma
SF-295 CNS = tested on: SF-295 CNS
MDA-MB-231 breast = tested on: MDA-MB-231 breast
ACHN renal = tested on: ACHN renal
UO-31 renal = tested on: UO-31 renal
SK-MEL-2 melanoma = tested on: SK-MEL-2 melanoma
RPMI-8226 leukemia = tested on: RPMI-8226 leukemia
MOLT-4 leukemia = tested on: MOLT-4 leukemia
OVCAR-8 ovarian = tested on: OVCAR-8 ovarian
CAKI-1 renal = tested on: CAKI-1 renal
K-562 leukemia = tested on: K-562 leukemia
OVCAR-5 ovarian = tested on: OVCAR-5 ovarian
EKVX NSCLC = tested on: EKVX NSCLC
A549 NSCLC = tested on: A549 NSCLC
COLO 205 colon = tested on: COLO 205 colon
SW-620 colon = tested on: SW-620 colon
OVCAR-4 ovarian = tested on: OVCAR-4 ovarian
SK-MEL-5 melanoma = tested on: SK-MEL-5 melanoma
UACC-257 melanoma = tested on: UACC-257 melanoma
BT-549 breast = tested on: BT-549 breast
SF-268 CNS = tested on: SF-268 CNS
NCI-H226 lung = tested on: NCI-H226 lung
KM12 colon = tested on: KM12 colon

For `CC(=O)Nc1cccc(Nc2nccc(N[C@@H](C)c3ccccc3)n2)c1`, the GI50 (MCF7 breast) was 171 nM, the TGI (MCF7 breast) was greater than 10 µM and the GI50 (HCT-116 colon) was 276 nM. The TGI (HCT-116 colon) was greater than 10 µM, the GI50 (SN12C renal) was 559 nM and the TGI (SN12C renal) was greater than 10 µM. The GI50 (786-0 renal) was 602 nM, the TGI (786-0 renal) was greater than 10 µM and the GI50 (HCT-15 colon) was 121 nM. It also gave a TGI (HCT-15 colon) greater than 10 µM, a GI50 (T-47D breast) of 331 nM and a TGI (T-47D breast) greater than 10 µM. It also gave a GI50 (NCI-H23 lung) of 239 nM, a TGI (NCI-H23 lung) greater than 10 µM and a GI50 (NCI-H460 lung) of 246 nM. It also gave a TGI (NCI-H460 lung) greater than 10 µM, a GI50 (IGROV1 ovarian) of 370 nM and a TGI (IGROV1 ovarian) greater than 10 µM. It also gave a GI50 (HOP-92 NSCLC) of 793 nM, a TGI (HOP-92 NSCLC) greater than 10 µM and a GI50 (U251 CNS) of 289 nM. For the same compound, the TGI (U251 CNS) was greater than 10 µM, the GI50 (DU-145 prostate) was 383 nM and the TGI (DU-145 prostate) was greater than 10 µM. The GI50 (CCRF-CEM leukemia) was 233 nM, the TGI (CCRF-CEM leukemia) was greater than 10 µM and the GI50 (SR leukemia) was 45.3 nM. It also gave a TGI (SR leukemia) greater than 10 µM, a GI50 (UACC-62 melanoma) of 126 nM and a TGI (UACC-62 melanoma) greater than 10 µM. It also gave a GI50 (SK-OV-3 ovarian) of 675 nM, a TGI (SK-OV-3 ovarian) greater than 10 µM and a GI50 (SNB-75 CNS) of 119 nM. The TGI (SNB-75 CNS) was greater than 10 µM, the GI50 (OVCAR-3 ovarian) was 118 nM and the TGI (OVCAR-3 ovarian) was greater than 10 µM. For the same compound, the TGI (A498 renal) was greater than 10 µM, the GI50 (TK-10 renal) was 760 nM and the TGI (TK-10 renal) was greater than 10 µM. The GI50 (HOP-62 NSCLC) was 345 nM, the TGI (HOP-62 NSCLC) was greater than 10 µM and the GI50 (PC-3 prostate) was 319 nM. It also gave a TGI (PC-3 prostate) greater than 10 µM, a GI50 (HCC-2998 colon) of 423 nM and a TGI (HCC-2998 colon) greater than 10 µM. For the same compound, the GI50 (SK-MEL-28 melanoma) was 703 nM, the TGI (SK-MEL-28 melanoma) was greater than 10 µM and the GI50 (SNB-19 CNS) was 335 nM. The TGI (SNB-19 CNS) was greater than 10 µM, the GI50 (LOX IMVI melanoma) was 390 nM and the TGI (LOX IMVI melanoma) was greater than 10 µM. It also gave a GI50 (HT29 colon) of 194 nM, a TGI (HT29 colon) greater than 10 µM and a GI50 (NCI-H522 lung) of 129 nM. It also gave a TGI (NCI-H522 lung) of 1240 nM, a GI50 (MALME-3M melanoma) of 102 nM and a TGI (MALME-3M melanoma) greater than 10 µM. It also gave a GI50 (SF-295 CNS) of 110 nM, a TGI (SF-295 CNS) of 522 nM and a GI50 (MDA-MB-231 breast) of 416 nM. For the same compound, the TGI (MDA-MB-231 breast) was greater than 10 µM, the GI50 (ACHN renal) was 509 nM and the TGI (ACHN renal) was greater than 10 µM. For the same compound, the GI50 (UO-31 renal) was 372 nM, the TGI (UO-31 renal) was greater than 10 µM and the GI50 (SK-MEL-2 melanoma) was 180 nM. It also gave a TGI (SK-MEL-2 melanoma) greater than 10 µM, a GI50 (RPMI-8226 leukemia) of 293 nM and a TGI (RPMI-8226 leukemia) greater than 10 µM. It also gave a GI50 (MOLT-4 leukemia) of 327 nM, a TGI (MOLT-4 leukemia) greater than 10 µM and a GI50 (OVCAR-8 ovarian) of 363 nM. It also gave a TGI (OVCAR-8 ovarian) greater than 10 µM, a GI50 (CAKI-1 renal) of 108 nM and a TGI (CAKI-1 renal) greater than 10 µM. For the same compound, the GI50 (K-562 leukemia) was 49.8 nM, the TGI (K-562 leukemia) was greater than 10 µM and the GI50 (OVCAR-5 ovarian) was 409 nM. For the same compound, the TGI (OVCAR-5 ovarian) was greater than 10 µM, the GI50 (EKVX NSCLC) was 363 nM and the TGI (EKVX NSCLC) was greater than 10 µM. The GI50 (A549 NSCLC) was 418 nM, the TGI (A549 NSCLC) was greater than 10 µM and the GI50 (COLO 205 colon) was 262 nM. It also gave a TGI (COLO 205 colon) of 1080 nM, a GI50 (SW-620 colon) of 194 nM and a TGI (SW-620 colon) greater than 10 µM. For the same compound, the GI50 (OVCAR-4 ovarian) was 1020 nM, the TGI (OVCAR-4 ovarian) was greater than 10 µM and the GI50 (SK-MEL-5 melanoma) was 125 nM. The TGI (SK-MEL-5 melanoma) was 481 nM, the GI50 (UACC-257 melanoma) was 908 nM and the TGI (UACC-257 melanoma) was greater than 10 µM. The GI50 (BT-549 breast) was 442 nM, the TGI (BT-549 breast) was greater than 10 µM and the GI50 (SF-268 CNS) was 990 nM. It also gave a TGI (SF-268 CNS) greater than 10 µM, a GI50 (NCI-H226 lung) of 1000 nM and a TGI (NCI-H226 lung) greater than 10 µM. For the same compound, the GI50 (KM12 colon) was 104 nM and the TGI (KM12 colon) was greater than 10 µM.
